Legend:
[1] = tested on: IMR32 (reduced PSMD5) and Kelly neuroblastoma cells; experiment: Viability of IMR32 versus Kelly neuroblastoma cells (CellTiter-Glo); type: cell-based, human; conditions: other experiments, e.g., 0.1 uM
[2] = tested on: T47D cells; experiment: Translation and degradation assays (3H-phenylalanine); type: cell-based, human; conditions: control cells, 20-hour treatment
Protocol: FIGS. 4A-4F: Transient induction of PSMD2 shRNA is sufficient to promote resistance to proteasome inhibition. (FIG. 4A) Schematic representation of the experimental design. (FIG. 4B) T471) cells harboring a doxycycline-inducible PSMD2 shRNA were grown in the presence of in/nil doxycycline for 48 hours. Cells were then collected, washed and plated in the absence of doxycycline for 24 hours prior to exposure to increasing concentrations of bortezomib. Relative cell numbers were measured 3 days later. […] The proteasome complex levels and activity of the 20S proteasome were assessed by native gel electrophoresis. Loading controls were analyzed by immunoblot for PSMD2 and tubulin following SDS-PAGE. […] (FIG. 4E) The rate of degradation was analyzed in cells with reduced levels of PSMD2 (green bars) versus control (red bars) in the presence or absence of 10 nM bortezomib (treatment for 20 hours) by monitoring the release of H3-Phe in pre-labeled cells. (FIG. 4F) Rate of total protein synthesis was determined in cells with reduced levels of PSMD2 (green bars) versus control (red bars) in the presence or absence of 10 nM bortezomib (treatment for 20 hours) by measuring the rate of incorporation of 3H-phenylalanine for 1 hour. **p<0.01***p<0.001 […]

[3] = molecular target: T1, FDX2 (Homo sapiens, UniProt Q6P4F2); experiment: In vitro Fe-S cluster assembly assay with reduced FDX2; type: biochemical; conditions: reduced FDX2 substituted for reduced FDX1
T1 construct: made in house
Description: Fe—S clusters are generated from sulfur extracted from cysteine by the iron sulfur-cluster (ISC) core complex (NFS1-ISD11-Acp-ISCU)2 and iron. A reductant (FDX1 or FDX2) is required for Fc-S cluster biosynthesis (Lill and Muhlenhoff, 2006; Py and Barras, 2010) (FIG. 53A). To investigate the effect of elesclomol on mitochondrial Fe—S cluster biosynthesis, we utilized in vitro Fe—S cluster assembly assays. […] As further confirmation, we examined the effect of elesclomol on electron transfer from reduced FDX1 to the ISC core complex upon the addition of cysteine.
Protein Expression and Purification—Unlabeled samples of ISCU, unlabeled (NFS1-ISD11-Acp)2 (abbreviated as SDA), unlabeled and [U-^15N]-FDX1 (truncated first 61 amino acids) and unlabeled FDX2 were produced and purified as described previously (Cai et al., 2013; Cai et al., 2017a; Cai et al., 20176). FDX1 and FDX2 were reduced by adding a 10-fold excess of sodium dithionite to oxidized FDX1 or FDX2 in an anaerobic chamber (Coy Laboratory). The reduction of FDX1 or FDX2 was monitored by the color change from dark brown to light pink and by recording IN/vis spectra before and after reduction. […]
In vitro Fe—S cluster assembly assay—The in vitro Fe—S cluster assembly assays were carried out as follows. […] The growth of absorbance at 456 nm was used to monitor the assembly of [2Fe-2S] clusters.

[4] = tested on: MM.1S tumors; experiment: MM.1S luciferase multiple myeloma model in SCID mice; type: in vivo, mouse; conditions: elesclomol 28mg/kg with bortezomib 0.25mg/kg
Protocol: FIGS. 54A-54D: Inhibiting the glycolysis-OXPHOS shift with elesclomol is beneficial to proteasome inhibitor treatment in a mouse model of multiple myeloma. (FIG. 54A) provides a schematic of the experimental outline. Mice were injected with MM .'S luciferase expressing cells. Upon tumor formation as judged by BLI signal intensity, treatment with elesclomol (28mg/kg), bortezomib (0.25mg/kg) or the combination (Combo) was initiated (day 0). At day 15, elesclomol was added to the treatment of one of the aroups that had received only bortezomib from day 0 to day 15 (combo-delayed group). […] N=5 per aroup. *** p<0.001.
FIGS. 60A-60B: Inhibiting the glycolysis-OXPHOS shift, with elesclomol is beneficial to proteasome inhibitor treatment in a mouse model of multiple myeloma.

T1 sequence (Q6P4F2 53-183): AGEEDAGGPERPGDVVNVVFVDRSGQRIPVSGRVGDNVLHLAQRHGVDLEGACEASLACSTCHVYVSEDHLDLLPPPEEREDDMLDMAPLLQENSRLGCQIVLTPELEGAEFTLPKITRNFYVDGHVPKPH

For `CC1(C)CCC(c2ccc(Cl)cc2)=C(CN2CCN(c3ccc(C(=O)NS(=O)(=O)c4ccc(N[C@H](CCN5CCOCC5)CSc5ccccc5)c(S(=O)(=O)C(F)(F)F)c4)cc3)CC2)C1` [ABT-263, navitoclax], the “toxicity at lower concentrations than 1 uM” value [1] was “a similar level of toxicity was observed”.
For `CC(C)C[C@H](NC(=O)[C@H](Cc1ccccc1)NC(=O)c1cnccn1)B(O)O` [bortezomib], the “rate of protein degradation” value [2] was “sharply decreased” and the “rate of protein synthesis” value [2] was “sharply decreased”.
With `CN(NC(=O)CC(=O)NN(C)C(=S)c1ccccc1)C(=S)c1ccccc1` [elesclomol] the “inhibition of in vitro Fe-S cluster assembly” value [3] was “almost complete loss of inhibition” and the “effect on proteasome inhibitor treatment in a mouse model of multiple myeloma” value [4] was “beneficial”.

Reference: patent US20180353445A1, “METHODS AND COMPOSITIONS RELATING TO PROTEASOME INHIBITOR RESISTANCE” (Whitehead Institute for Biomedical Research, priority 2017, published 2018)
